Reference: patent US6929912B2 (priority 1998, dated 2005)
Several values for one entry are separate records, joined by “and”; a condition that tells them apart may be missing. Equal values may be shown once. Read-outs that look alike come from different tables or passages of the source.

Key:
[1] = system: metastatic or inflammatory breast cancer; format: in vivo, human
breast cancer = details: cited from earlier work

Structure (SMILES)	Survival >3 years: Yes ([1]; human, in vivo)	chance of survival relative to patients homozygous for the A allele ([1]; CYP3A4 B allele patients)	Survival >3 years: Yes ([1]; CYP3A4 genotype AA (wildtype))	Survival >3 years: Yes ([1]; CYP3A4 genotype AB or BB)	chance of survival relative to patients homozygous for the A allele ([1]; CYP3A5 B allele patients)	Survival >3 years: Yes ([1]; CYP3A5 genotype AA (wildtype))	Survival >3 years: Yes ([1]; CYP3A5 genotype AB or BB)	blood concentrations of CY on day 3 (patients carrying the CYP3A4 promoter -392 variant vs without, p=0.0247)	blood concentrations of CY on day 2 (patients carrying the CYP3A4 promoter -392 variant vs without, p=0.0260)	Apparent induction of CY metabolism (Day 3 exposure/Day 1 exposure) (patients carrying the CYP3A4 variant SNP vs without, p=0.0260)	blood concentrations of CY on day 2 (patients carrying the CYP3A5 promoter -147 variant vs without, p=0.0281)	concentrations of CY (patients with CYP3A4 B allele vs homozygous for the A allele, day not given)	Blood concentrations of CY (patients with CYP3A5 B alleles vs homozygous for the A allele, day not given)	objective responses, patients (breast cancer; cyclophosphamide used alone)	objective responses, patients (breast cancer; cyclophosphamide used in combination regimens)
O=NN(CCCl)C(=O)NCCCl [BCNU, 1,3-bis-(chloroethyl)-1-nitrosourea]	55.6% and 29.7%	–	–	–	–	–	–	–	–	–	–	–	–	–	–
O=P1(N(CCCl)CCCl)NCCCO1 (stereo not drawn) [CY, cyclophosphamide]	–	⅓	46.6%	15.4%	less than ⅓	48.2%	14.3%	significantly higher	significantly higher	higher	significantly higher	higher	significantly higher	about 35%	up to 90%
